# Test results as given in patent US6017958A, “Method of treating malignant tumors with thyroxine analogues having no significant hormonal activity” (Octamer, Inc., priority 1997, dated 2000).
# What was measured:
# [1] = test system: E-ras 20 cells (E-ras transformed bovine endothelial cells); experiment: Tumorigenicity of pretreated E-ras 20 cells in athymic nude mice; assay type: in vivo, bovine cells in nude mice; conditions: 10 μM, 4 days pretreatment; tumor size at day 25
# Method: E-ras transformed bovine endothelial cells (Bauer et al., 1996, Intl. J. Oncology 8:239-252) were exposed to 10 μM DIME for […]. The DIME-treated cells (10^5 or 10^6 cells/100 μL) were injected subcutaneously into nude mice and tumor progression followed for 25 days.
# Tumorigenicity of E-ras 20 Cells in athymic nude mice was assayed as described previously. Bauer et al., 1996, "Modification of growth related enzymatic pathways and apparent loss of tumorigenicity of a ras-transformed bovine endothelial cell line by treatment with 5-iodo-6-amino-1,2-benzopyrone (INH2 BP)" Intl. J. Oncol. 8:239-252. The in vivo antitumorigenic action of DIME was assayed on athymic mice inoculated with 10^6 MDA-MB-231 cells, as in the tumorgenicity assay. In about 10-14 days when subcutaneous tumors appeared, DIME treatment consisting of p.o. administration of DIME suspension (once a day) was commenced and continued for 28-32 days as reported, Kun et al., 1996, "Induction of tumor apotosis by methyl-3,5-diiodo-4-(4'-methoxyphenoxy) benzoate (DIME)", Abstract No. 102, Int. J. Oncol. 9:supplement 829.
# The structural specificity of DIME and its homologs and analogs can be assessed by examining Table 7 and Table 8. We have prepared 17 novel structural analogs of DIME and compared the antitumor activity of 10 of the compounds (Table 8) which appears sufficient to draw some general conclusions. The biological assay chosen was the determination of antitumorigenic action of the drugs on the in vivo tumorigenicity of E-ras cells in nude mice, Bauer et al., 1996, "Modification of growth related enzymatic pathways and apparent loss of tumorigenicity of a ras-transformed bovine endothelial cell line by treatment with 5-iodo-6-amino-1,2-benzopyrone (INH2 BP)" Intl. J. Oncol. 8:239-252. E-ras 20 cells (10^5 or 10^6) were incubated with 10 μM DIME or analogs for 4 days, then 10^5 and 10^6 cells were inoculated subcutaneously into nude mice (5 per test) and rates of tumor formation quantitated by direct tumor volume measurements (cf. 2). […] Identical antitumorigenic tests were performed with nine DIME analogs and taking the effect of DIME as 100% (comparing tumor sizes at day 25) the antitumor efficacy was calculated as percent of DIME activity. […] Results summarized in Table 8 illustrate that substituents in R1 and R2 determine antitumor efficacy.
# The efficacy of DIME analogs on in vivo tumorigenicity of Eras 20 cells i
# athymic mice was compared to that of DIME (compound 1) which was taken as
# 100, determining the size of tumor reduction at day 25. Pretreatment with
# DIME or its analogs (Table 7) was with 10 μM for 4 days prior to s.c.
# [2] = test system: microtubule protein (MTP); experiment: Microtubule protein (MTP) polymerization optical test; assay type: biochemical, bovine or rabbit; conditions: for Percent inhibition of initial velocity of microtubule assembly: 10 μM, 1 mM GTP, 37° C.
# Method: Preparation of MTP and an optical test for polymerization was adopted from published methods, Gaskin, et al., 1974, "Turbidimetric studies of the in vitro assembly and disassembly of porcine neurotubules", J. Mol. Biol. 89:737-758; Tiwari, et al., 1993, "A pH and temperature-dependent cycling method that doubles the yield of microtubule protein", Anal. Biochem. 215:96-103. Bovine or rabbit brain was homogenized in an equal volume of ice cold buffer containing 100 mM Pipes/K^+ (pH 7.4), 4 mM EGTA, 1 mM MgCl2, 0.5 mM DTT and 0.1 mM PMSF, and centrifuged at 39,000 g for 1 hour at 4° C. To the supernatant, DMSO (8% final concentration) and GTP (1 mM final concentration) were added, followed by incubation at 37° C. for 30 minutes. Microtubules were pelleted at 100,000 g at 37° C for 30 minutes. The pellets were incubated on ice for 15 minutes, followed by resuspension in ice cold PEM buffer (100 mM Pipes/K+(pH 6.9), 1 mM EGTA, 1 mM MgCl2). This warm polymerization and cold depolymerization cycle was repeated once more and the cold, resuspended monomeric MTP (8-10 mg/ml protein) was used for the optical test for polymerization kinetics. Both rabbit or bovine brain yielded identical MTP preparations.
# The composition of the optical test is described in the legends of Figures and Table 12. The polymerization reaction was started by the addition of 100 μl of MTP solution (equivalent to 0.8-1.0 mg protein) and initial linear rates of increase in absorbance at 350 nm followed and recorded at 37° C. (see FIG. 1) in a Perkin-Elmer 552 double beam spectrophotometer, equipped with a thermostatically controlled cuvette holder.
# […] Microtubule assembly at 37° C. was monitored at λ=350 nm and initial velocities were calculated as mA350 /min. […] The values are averages of duplicate assays.
# [3] = test system: seven human cancer cell lines; experiment: Cytocidal action on human cancer cell lines; assay type: cell-based
# Method: Seven human cancer cell lines were obtained from the American Tissue Culture Collection (Rockville, Md.) and maintained in the recommended growth media. Cells were seeded into wells (2 cm^2) at a density of 2×10^4 cells/cm^2. Various concentrations of Compounds 1-13 were added to the media at the time of seeding.
# The cultures were incubated for 72 hours at 37° C. (5% CO2 atmosphere). Following incubation, cells were detached with trypsin and counted in a hemocytometer.
# protein phosphatase 2A = experiment: Activation of purified protein phosphatase 2A (32P-histone H1 dephosphorylation); assay type: biochemical; conditions: 50 μM
# Method: 2.1 Preparation of ^32 P-labeled Histone H1 Substrate
# Histone H1 was phosphorylated with protein kinase C (Upstate Biotechnology,Inc., Lake Placid, N.Y.) in a volume of 100 μL according to standard protocols. Alternatively, histone H1 was phosphorylated with p34cdc2 kinase purified from rapidly multiplying Mytilus Edulis embryos at 4-8 stage after isolation with the p^13 -Suc agarose technique (Smythe and Newport, 1992, "Coupling of Mitosis to the Completion of S Phase in Xenopus Occurs via Modulation of the Tyrosine Kinase that Phosphorylates p34cdc2," Cell 68:787-797).
# 125 ng purified protein phosphatase 2A (Upstate Biotechnology, Inc., Lake Placid, N.Y.; Usui et al., 1983, J. Biol. Chem. 258:10455-10463) was preincubated with thyroxine analogue (50 μM) in buffer (20 mM MOPS or Tris, pH 7.5, 1 mM MgCl2, 60 μM β-mercaptoethanol) for 10 min. at 23° C. Total reaction volume was 20 μL. ^32 P-labeled histone H1 substrate (10 μg, 10^5 cpm) was added and the dephosphorylation reaction allowed to proceed for 5 min. at 23° C., after which time the reaction was quenched by addition of 2 μL Laeimli buffer. An identical reaction containing 125 ng untreated protein phosphatase 2A was run as a control.
# Phosphorylated and dephosphorylated histone H1 were separated by gel electrophoresis (12% SDS-PAGE), bands containing phosphorylated histone H1 excised and assayed for ^32 P activity via scintillation counter.
# The velocity of dephosphorylation in 5 min. is an indication of the initial velocity (Vinit) of the dephosphorylation reaction.
# MDA-MB-231 cells = experiment: Immunocytochemistry of mitotic spindle and spindle-associated proteins; assay type: cell-based, human; conditions: 100 nM, 18 hrs; data not shown
# Method: Cells were fixed in methanol at -20° C. for 5 min. The primary antibody was mouse monoclonal anti-beta tubulin (Amersham) and secondary antibody from goat, conjugated to fluorescein isothiocyanate from Cappel (Durham, N.C., USA). The DNA of nuclei was stained by 10 min of incubation in 0.05 μg/ml 4'-6-diamidono-2-phenylindole (DAPI). Stained cells were viewed with either a Zeiss 40xPlan-Neofluar or a Nikon 60xPlanApo objective. For classification of cells in the mitotic phase, prophase and metaphase were combined into a single category, because it was difficult to distinguish late prophase from metaphase.
# In preliminary studies (data not shown) we have also studied the behavior of certain spindle-associated proteins by the immunocytologic technique.
# MDA-MD-231 cells = experiment: Inhibition of tumor cell growth; assay type: cell-based, human; conditions: 3 days; for Cells (growth): control 0.95
# Method: MDA-MD-231 human cancer cells were obtained from the American Tissue Culture Collection (Rockville, Md.) and maintained in the recommended growth media. Cells were grown in the presence of various concentrations of Compounds 1 and 14 for 3 days at 37° C.
SMILES,"Efficacy (inhibition of E-ras 20 tumorigenicity, DIME = 100) [1] [%]",Percent inhibition of initial velocity of microtubule assembly [2] [%],other results
"CNC(=O)c1cc(I)c(Oc2ccc(OC)cc2)c(I)c1 [Compound 8, 3,5-diiodo-4-(4'-methoxyphenoxy)-N-methyl benzamide]",22,–,–
"COc1ccc(Oc2c(I)cc(C(=O)N(C)C)cc2I)cc1 [Compound 9, 3,5-diiodo-4-(4'-methoxyphenoxy)-N,N-dimethyl benzamide]",64,6,–
"CCOC(=O)c1cc(I)c(Oc2ccc(OC)cc2)c(I)c1 [Compound 5, Ethyl 3,5-diiodo-4-(4'-methoxyphenoxy)benzoate]",83,35,activity in cellular assays and in vivo [3]: completely inactive
"COC(=O)c1cc(I)c(Oc2ccc(O)cc2)c(I)c1 [Compound 10, Methyl 3,5-diiodo-4-(4'-hydroxyphenoxy) benzoate]",14,–,–
COC(=O)c1cc(I)c(Oc2ccc(OC(F)(F)F)cc2)c(I)c1 [Compound 18],–,7,–
"CCCOc1ccc(Oc2c(I)cc(C(=O)OC)cc2I)cc1 [Compound 3, Methyl 3,5-diiodo-4-(4'-n-propoxyphenoxy)benzoate]",44,–,"activation of protein phosphatase 2A (protein phosphatase 2A): did not activate; Activity/5 min (initial velocity of histone H1 dephosphorylation) (protein phosphatase 2A; 10 min preincubation, control 10217 ± 1708, average of three samples): 7521 ± 1562 cpm; activity in cellular assays and in vivo [3]: completely inactive"
"C=C1[C@@H](O)[C@@H]2O[C@]3(CC[C@H](/C=C/[C@@H](C)[C@@H]4CC(C)=C[C@@]5(O[C@H](C[C@@](C)(O)C(=O)O)CC[C@H]5O)O4)O3)CC[C@H]2O[C@@H]1[C@@H](O)C[C@H](C)[C@H]1O[C@@]2(CCCCO2)CC[C@H]1C [okadaic acid, reference compound]",–,–,cdc-2 kinase- and pp2a-spindle association (MDA-MB-231 cells): abolished only cdc-2 kinase- and pp2a-spindle association
"CCOc1ccc(Oc2c(I)cc(C(=O)OC)cc2I)cc1 [Compound 2, Methyl 3,5-diiodo-4-(4'-ethoxyphenoxy)benzoate]",93,76,"Emax ([3]; 72 hours, human cancer cells, read-out: maximal cytocidal activity as compared to DIME): 25 to 30%"
"CCCCOc1ccc(Oc2c(I)cc(C(=O)OC)cc2I)cc1 [Compound 4, Methyl 3,5-diiodo-4-(4'-n-butoxyphenoxy)benzoate]",4,8,–
"COc1ccc(Oc2c(I)cc(C(N)=O)cc2I)cc1 [Compound 7, 3,5-diiodo-4-(4'-methoxyphenoxy)benzamide]",53,43,–
"COc1ccc(Oc2c(I)cc(C(=O)O)cc2I)cc1 [Compound 6, 3,5-diiodo-4-(4'-methoxyphenoxy)benzoic acid]",45,0,inhibitory effect on MTP polymerization ([2]; methyl ester replaced): completely abolishes the inhibitory effect on MTP polymerization
"COC(=O)c1cc(I)c(Oc2ccc(OC)cc2Cl)c(I)c1 [Compound 14, Methyl 3,5-diiodo-4-(2'-chloro-4'-methoxyphenoxy)benzoate]",–,–,Cells (growth) (MDA-MD-231 cells; 0.5 μM): 0.95 ×10^6; Cells (growth) (MDA-MD-231 cells; 1.0 μM): 0.71 ×10^6; Cells (growth) (MDA-MD-231 cells; 2.0 μM): 0.20 ×10^6; inhibitory activity as compared to DIME (MDA-MD-231 cells): about 25%
